Values after ≈ are worked out from the molar mass of the structure shown. Active and inactive are the calls of the source. The rule behind the calls is not given here.
Key:
Format in all cases: functional
[1] = system: Chromobacterium violaceum; assay: Antibacterial activity against Chromobacterium violaceum MTCC 2656 assessed as inhibition zones at 300 ug/disk at 37 degC for 24 hr; settings: MTCC 2656, 24 h, read-out: IZ
Klebsiella aerogenes [2] = assay: Antibacterial activity against Enterobacter aerogenes MTCC 39 assessed as growth arrest at 37 degC for 24 hr; settings: MTCC 39, 24 h
Pseudomonas aeruginosa [3] = assay: Antibacterial activity against Pseudomonas aeruginosa MTCC 741 assessed as growth arrest at 37 degC for 24 hr; settings: MTCC 741, 24 h
Caenorhabditis elegans = assay: Nematicidal activity against Caenorhabditis elegans assessed as immobility; settings: read-out: LD50 (the source's name)
[4] = system: Trichophyton mentagrophytes; assay: Antifungal activity against Trichophyton mentagrophytes IFO 40996 assessed as growth inhibition at 37 degC for 48 hr; settings: IFO 40996, 48 h
Candida albicans [5] = assay: Antifungal activity against Candida albicans ATCC 10231 assessed as growth inhibition at 37 degC for 48 hr; settings: ATCC 10231, 48 h
Staphylococcus aureus [6] = assay: Antibacterial activity against Staphylococcus aureus MTCC 96 assessed as inhibition zones at 300 ug/disc at 37 degC for 24 hr; settings: MTCC 96, 24 h, read-out: IZ
Bacillus subtilis [7] = assay: Antibacterial activity against Bacillus subtilis MTCC 441 assessed as growth arrest at 37 degC for 24 hr; settings: MTCC 441, 24 h
Aspergillus fumigatus [8] = assay: Antifungal activity against Aspergillus fumigatus HIC 6094 assessed as growth inhibition at 37 degC for 48 hr; settings: HIC 6094, 48 h
[9] = system: Chromobacterium violaceum; assay: Antibacterial activity against Chromobacterium violaceum MTCC 2656 assessed as growth arrest at 37 degC for 24 hr; settings: MTCC 2656, 24 h
[10] = system: Trichophyton mentagrophytes; assay: Antifungal activity against Trichophyton mentagrophytes IFO 40996 assessed as growth inhibition at 300 ug/disc at 37 degC for 48 hr
Candida albicans [11] = assay: Antifungal activity against Candida albicans ATCC 10231 assessed as growth inhibition at 300 ug/disk at 37 degC for 48 hr
Aspergillus fumigatus [12] = assay: Antifungal activity against Aspergillus fumigatus HIC 6094 assessed as growth inhibition at 300 ug/disc at 37 degC for 48 hr
Bacillus subtilis [13] = assay: Antibacterial activity against Bacillus subtilis MTCC 441 assessed as inhibition zones at 300 ug/disk at 37 degC for 24 hr; settings: MTCC 441, 24 h, read-out: IZ
[14] = system: Ditylenchus myceliophagus; assay: Nematicidal activity against Ditylenchus myceliophagus assessed as immobility; settings: read-out: LD50 (the source's name)
Pseudomonas aeruginosa [15] = assay: Antibacterial activity against Pseudomonas aeruginosa MTCC 741 assessed as inhibition zones at 300 ug/disk at 37 degC for 24 hr; settings: MTCC 741, 24 h, read-out: IZ
[16] = system: Lysinibacillus sphaericus; assay: Antibacterial activity against Lysinibacillus sphaericus MTCC 11 assessed as inhibition zones at 300 ug/disk at 37 degC for 24 hr; settings: MTCC 11, 24 h, read-out: IZ
[17] = system: Lysinibacillus sphaericus; assay: Antibacterial activity against Lysinibacillus sphaericus MTCC 11 assessed as growth arrest at 37 degC for 24 hr; settings: MTCC 11, 24 h
Klebsiella aerogenes [18] = assay: Antibacterial activity against Enterobacter aerogenes MTCC 39 assessed as inhibition zones at 300 ug/disk at 37 degC for 24 hr; settings: MTCC 39, 24 h, read-out: IZ
Staphylococcus aureus [19] = assay: Antibacterial activity against Staphylococcus aureus MTCC 96 assessed as growth arrest at 37 degC for 24 hr; settings: MTCC 96, 24 h
Trichophyton rubrum [20] = assay: Antifungal activity against Trichophyton rubrum IFO 9185 assessed as growth inhibition at 37 degC for 48 hr; settings: IFO 9185, 48 h
Trichophyton rubrum [21] = assay: Antifungal activity against Trichophyton rubrum IFO 9185 assessed as growth inhibition at 300 ug/disk at 37 degC for 48 hr; settings: IFO 9185, 48 h, read-out: IZ

Row | SMILES | zone of inhibition at 300 µg/disc [1] [mm] | MBC (Klebsiella aerogenes [2]) [µg/mL] | MIC (Klebsiella aerogenes [2]) [µg/mL] | MBC (Pseudomonas aeruginosa [3]) [µg/mL] | MIC (Pseudomonas aeruginosa [3]) [µg/mL] | LC50 (Caenorhabditis elegans) [µg/mL] | MBC [4] [µg/mL] | MIC [4] [µg/mL] | MBC (Candida albicans [5]) [µg/mL] | MIC (Candida albicans [5]) [µg/mL] | zone of inhibition at 300 µg/disc (Staphylococcus aureus [6]) [mm] | MBC (Bacillus subtilis [7]) [µg/mL] | MIC (Bacillus subtilis [7]) [µg/mL] | MBC (Aspergillus fumigatus [8]) [µg/mL] | MIC (Aspergillus fumigatus [8]) [µg/mL] | MBC [9] [µg/mL] | MIC [9] [µg/mL] | zone of inhibition at 300 µg/disc (Bacillus subtilis [13]) [mm] | LC50 [14] [µg/mL] | zone of inhibition at 300 µg/disc (Pseudomonas aeruginosa [15]) [mm] | also measured
1 | COc1ccc(Cc2ccc(OC)c(C3SC4C(=NN(c5ccccc5)C4c4ccc(F)cc4)N3c3ccc(Cl)cc3)c2)cc1C1SC2C(=NN(c3ccccc3)C2c2ccc(F)cc2)N1c1ccc(Cl)cc1 (centres undefined) | 20 | 25 (≈ 23.9 µM) | 12.5 (≈ 12 µM) | 12.5 (≈ 12 µM) | 6.25 (≈ 5.99 µM) | 650 (≈ 623 µM) | 12.5 (≈ 12 µM) | 6.25 (≈ 5.99 µM) | 6.25 (≈ 5.99 µM) | 6.25 (≈ 5.99 µM) | 20 | 25 (≈ 23.9 µM) | 6.25 (≈ 5.99 µM) | 25 (≈ 23.9 µM) | 12.5 (≈ 12 µM) | 25 (≈ 23.9 µM) | 12.5 (≈ 12 µM) | 18 | 810 (≈ 776 µM) | 19 | inhibition zone (IZ) [10]: inactive; inhibition zone (IZ) (Candida albicans [11]): inactive; inhibition zone (IZ) (Aspergillus fumigatus [12]): inactive; zone of inhibition at 300 µg/disc [16]: 21 mm; MBC [17]: 50 µg/mL (≈ 47.9 µM); MIC [17]: 12.5 µg/mL (≈ 12 µM); zone of inhibition at 300 µg/disc (Klebsiella aerogenes [18]): 22 mm; MBC (Staphylococcus aureus [19]): 50 µg/mL (≈ 47.9 µM); MIC (Staphylococcus aureus [19]): 25 µg/mL (≈ 23.9 µM); MBC (Trichophyton rubrum [20]): 12.5 µg/mL (≈ 12 µM); MIC (Trichophyton rubrum [20]): 12.5 µg/mL (≈ 12 µM); zone of inhibition at 300 µg/disc (Trichophyton rubrum [21]): 17 mm
2 | COc1ccc(Cc2ccc(OC)c(C3SC4C(=NN(c5ccc(Cl)cc5)C4c4ccc(F)cc4)N3c3ccc(C)cc3)c2)cc1C1SC2C(=NN(c3ccc(Cl)cc3)C2c2ccc(F)cc2)N1c1ccc(C)cc1 (centres undefined) | 21 | 50 (≈ 46.6 µM) | 12.5 (≈ 11.7 µM) | 25 (≈ 23.3 µM) | 6.25 (≈ 5.83 µM) | 360 (≈ 336 µM) | 12.5 (≈ 11.7 µM) | 6.25 (≈ 5.83 µM) | 25 (≈ 23.3 µM) | 12.5 (≈ 11.7 µM) | 29 | 25 (≈ 23.3 µM) | 12.5 (≈ 11.7 µM) | 12.5 (≈ 11.7 µM) | 6.25 (≈ 5.83 µM) | 25 (≈ 23.3 µM) | 12.5 (≈ 11.7 µM) | 17 | 240 (≈ 224 µM) | 11 | zone of inhibition at 300 µg/disc ([10]; IFO 40996, 48 h, read-out: IZ): 10 mm; zone of inhibition at 300 µg/disc (Candida albicans [11]; ATCC 10231, 48 h, read-out: IZ): 13 mm; zone of inhibition at 300 µg/disc (Aspergillus fumigatus [12]; HIC 6094, 48 h, read-out: IZ): 11 mm; zone of inhibition at 300 µg/disc [16]: 17 mm; MBC [17]: 25 µg/mL (≈ 23.3 µM); MIC [17]: 12.5 µg/mL (≈ 11.7 µM); zone of inhibition at 300 µg/disc (Klebsiella aerogenes [18]): 18 mm; MBC (Staphylococcus aureus [19]): 25 µg/mL (≈ 23.3 µM); MIC (Staphylococcus aureus [19]): 12.5 µg/mL (≈ 11.7 µM); MBC (Trichophyton rubrum [20]): 12.5 µg/mL (≈ 11.7 µM); MIC (Trichophyton rubrum [20]): 6.25 µg/mL (≈ 5.83 µM); zone of inhibition at 300 µg/disc (Trichophyton rubrum [21]): 11 mm

Source: ChEMBL document CHEMBL3045223, “Synthesis, nematicidal and antimicrobial properties of Bis-[4-methoxy-3-[3-(4-fluorophenyl)-6-(4-methylphenyl)-2(aryl)-tetrahydro-2H-pyrazolo[3,4-d]thiazol-5-yl]phenyl]methanes” (2009)
